This is an account of results in patent publication US10259808B2 (Genentech, Inc., priority 2015, dated 2019).

Counter-ions that a name gives are not always drawn.

The target of this test is T1, RORc ligand binding domain (Homo sapiens, UniProt P51449).
T1 sequence (P51449 269-508 limits assumed): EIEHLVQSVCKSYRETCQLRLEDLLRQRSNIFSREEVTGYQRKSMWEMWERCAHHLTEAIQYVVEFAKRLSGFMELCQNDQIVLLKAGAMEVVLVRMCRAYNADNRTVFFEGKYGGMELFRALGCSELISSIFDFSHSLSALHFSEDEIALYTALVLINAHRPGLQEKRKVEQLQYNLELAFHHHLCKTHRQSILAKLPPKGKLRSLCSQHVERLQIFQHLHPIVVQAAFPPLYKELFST
In words: In vitro RORc ligand binding assay (25-[3H]hydroxycholesterol displacement).
Protocol: This assay was used to determine a compound's potency in inhibiting activity of RORc by determining, Kiapp, IC50, or percent inhibition values.
On day of the assay, 100 uL of 0.05% CHAPS (in deionized H2O) was added to all wells of the GFB Unifilter plate and allowed soak for 1 h. A wash buffer of 50 mM HEPES (pH 7.4), 150 mM NaCl, and 5 mM MgCl2 was prepared to wash the filter plate. To prepare an assay buffer, BSA was added to the wash buffer to reach 0.01% and DTT was added to reach 1 mM.
The 20× compound stocks were diluted in DMSO with Assay Buffer 4-fold to reach 5× the final test concentration in 25% DMSO (10 uL compound+30 uL Assay Buffer). Solutions were mixed by aspiration several times with a pipette set on 50 uL volume.
For two point screening, 10 mM stock compound solutions were diluted in DMSO to obtain 200 uM (20× the high test concentration) and then diluted 10-fold further to reach 20 uM (20× the low test concentration). The 20× stocks were diluted 4-fold with Assay Buffer (10 uL compound+30 uL Assay Buffer) to reach 5× the test concentrations (50 uM and 5 uM) and 10 uL were added to two assay plates for the duplicate wells. With each concentration tested on 2 plates, each set of 80 compounds used 4 assay plates (1 uM and 10 uM, with n=2).
Nonspecific Binding (NSB) Samples, Total Binding (TB) Samples and No Receptor (No R) Samples
For 25-hydroxycholesterol in 25% DMSO/75% Assay Buffer; 10 uL per well was used for NSB samples. Wells for Total Binding and No Receptor sample determination contained 10 uL of 25% DMSO/75% Assay Buffer per well.
Radioligand 25-[^3H]Hydroxycholesterol) Preparation
Add 20 uL to all wells to reach 6 nM final in the assay.
Stock receptor solution was diluted in assay buffer to obtain 1.5 ug/mL in Assay Buffer. 20 uL was added to all wells. For No R samples, 20 uL Assay Buffer was substituted for receptor solution.
Sample addition to Plates and Incubation
Assay plates were 96-well polypropylene V-bottom plates. […] 10 uL of 25% DMSO/75% Assay Buffer was added to Total Binding or No Receptor wells. 10 uL of 5 uM 25-hydroxycholesterol in 25% DMSO/75% Assay Buffer was added to NSB wells. […] 20 uL of 1.5 ug/mL RORc receptor was added to wells (or 40 uL Assay Buffer to No R wells). Following addition to the wells, the plates were incubated 3 h at 25° C.
Using a Packard Filtermate Harvester, the filter plate were washed 4 times following transfer of the incubated samples. Plates were dry-filtered completely (2 h at 50° C. or overnight at room temperature). 50 uL Microscint 0 was added to all wells and read on Topcount protocol Inverted.
Final concentrations were as follows: 50 mM HEPES buffer (pH 7.4); 150 mM NaCl; 1 mM DTT; 5 mM MgCl2; 0.01% BSA; 5% DMSO; 0.6 ug/mL RORc receptor; 6 nM 25-[^3H]hydroxycholesterol. For NSB wells, 1 uM 25-hydroxycholesterol was also present.
The IC50 is the concentration that gives 50% inhibition. A low value points to greater potency. Regarding `C[C@H]1CC[C@H](c2ccccc2)S(=O)(=O)N1Cc1cc(F)c(C2(c3n[nH]c(=O)o3)CCC2)cc1F` [Example 144, 5-[1-[2,5-difluoro-4-[[(3S,6R)-3-methyl-1,1-dioxo-6-phenyl-thiazinan-2-yl]methyl]phenyl]cyclobutyl]-3H-1,3,4-oxadiazol-2-one], the IC50 is 9.4 nM. The figure for `C[C@H]1CC[C@@H](c2ccccc2)S(=O)(=O)N1Cc1cc(F)c(C2(c3n[nH]c(=O)o3)CCC2)cc1F` [Example 143, 5-[1-[2,5-difluoro-4-[[(3S,6S)-3-methyl-1,1-dioxo-6-phenyl-thiazinan-2-yl]methyl]phenyl]cyclobutyl]-3H-1,3,4-oxadiazol-2-one] is 151 nM.

Take `C[C@H]1CC[C@H](c2ccccc2)S(=O)(=O)N1Cc1cc(F)c([C@]2(Cn3cn[nH]c3=O)C[C@](C)(O)C2)cc1F` (racemic) [Example 178, 4-[[1-[2,5-difluoro-4-[[rac-(3S,6R)-3-methyl-1,1-dioxo-6-phenyl-thiazinan-2-yl]methyl]phenyl]-3-hydroxy-3-methyl-cyclobutyl]methyl]-1H-l,2,4-triazol-5-one]: the IC50 worked out at 6.1 nM. This IC50 is about 25-fold lower than that of the molecule before. In turn, `C[C@H]1CC[C@H](c2ccccc2)S(=O)(=O)N1Cc1cc(F)c(C2(C(=O)n3ccc(N)n3)CCOCC2)cc1F` [Example 35, (3-aminopyrazol-1-yl)-[4-[2,5-difluoro-4-[[(3S,6R)-3-methyl-1,1-dioxo-6-phenyl-thiazinan-2-yl]methyl]phenyl]tetrahydropyran-4-yl]methanone] showed an IC50 of 10 nM. In the case of `C[C@H]1CC[C@H](c2ccccc2)S(=O)(=O)N1Cc1cc(F)c([C@]2(NCC3(C)COC3)C[C@](C)(O)C2)cc1F` (racemic) [Example 187, 3-[2,5-difluoro-4-[[rac-(3S,6R)-3-methyl-1,1-dioxo-6-phenyl-thiazinan-2-yl]methyl]phenyl]-1-methyl-3-[(3-methyloxetan-3-yl)methylamino]cyclobutanol] it was 10 nM; in that of `C[C@H]1CC[C@H](c2ccccc2)S(=O)(=O)N1Cc1cc(F)c(C2(c3n[nH]c(=O)o3)CC(=O)C2)cc1F` [Example 119, 5-[1-[2,5-difluoro-4-[[(3S,6R)-3-methyl-1,1-dioxo-6-phenyl-thiazinan-2-yl]methyl]phenyl]-3-oxo-cyclobutyl]-3H-1,3,4-oxadiazol-2-one], 1.8 nM. `CO[C@]1(C)C[C@](c2n[nH]c(=O)o2)(c2cc(F)c(CN3[C@@H](C)CC[C@H](c4ccccc4)S3(=O)=O)cc2F)C1` [Example 156, trans 5-[1-[2,5-difluoro-4-[[(3S,6R)-3-methyl-1,1-dioxo-6-phenyl-thiazinan-2-yl]methyl]phenyl]-3-methoxy-3-methyl-cyclobutyl]-3H-1,3,4-oxadiazol-2-one] showed a half-maximal inhibitory concentration (IC50) of 4 nM. Molecule `C[C@H]1CC[C@H](c2ccccc2)S(=O)(=O)N1Cc1ccc(C2(C(=O)NCc3ccno3)CCOCC2)cc1F` [Example 4] gave an IC50 of 75.7 nM. This IC50 is about 19-fold higher than that of the molecule before. `C[C@H]1CC[C@H](c2ccccc2)S(=O)(=O)N1Cc1cc(F)c([C@]2(Cn3ncccc3=O)C[C@](C)(O)C2)cc1F` (racemic) [Example 183, 2-[[1-[2,5-difluoro-4-[[rac-(3S,6R)-3-methyl-1,1-dioxo-6-phenyl-thiazinan-2-yl]methyl]phenyl]-3-hydroxy-3-methyl-cyclobutyl]methyl]pyridazin-3-one] yielded an IC50 of 170 nM. `CO[C@]1(C)C[C@@](c2n[nH]c(=O)o2)(c2cc(F)c(CN3[C@@H](C)CC[C@H](c4ccccc4)S3(=O)=O)cc2F)C1` [Example 157, cis 5-[1-[2,5-difluoro-4-[[(3S,6R)-3-methyl-1,1-dioxo-6-phenyl-thiazinan-2-yl]methyl]phenyl]-3-methoxy-3-methyl-cyclobutyl]-3H-1,3,4-oxadiazol-2-one]: the IC50 was determined as 7.4 nM.

Molecule `C[C@H]1CC[C@H](c2ccccc2)S(=O)(=O)N1Cc1cc(F)c([C@]2(c3n[nH]c(=O)o3)C[C@H](CC#N)C2)cc1F` [Example 153, trans 2-[3-[2,5-difluoro-4-[[(3S,6R)-3-methyl-1,1-dioxo-6-phenyl-thiazinan-2-yl]methyl]phenyl]-3-(2-oxo-3H-1,3,4-oxadiazol-5-yl)cyclobutyl]acetonitrile] yielded an IC50 of 8.7 nM. In the case of `COC1(OC)CC(c2n[nH]c(=O)o2)(c2cc(F)c(CN3[C@@H](C)CC[C@H](c4ccccc4)S3(=O)=O)cc2F)C1` [Example 120, 5-[1-[2,5-difluoro-4-[[(3S,6R)-3-methyl-1,1-dioxo-6-phenyl-thiazinan-2-yl]methyl]phenyl]-3,3-dimethoxy-cyclobutyl]-3H-1,3,4-oxadiazol-2-one], the IC50 came out at 5.7 nM. As for `C[C@H]1CC[C@H](c2ccccc2)S(=O)(=O)N1Cc1cc(F)c(C2(C(=O)N3CC[C@H](O)C3)CCOCC2)cc1F` [Example 34, [4-[2,5-difluoro-4-[[(3S,6R)-3-methyl-1,1-dioxo-6-phenyl-thiazinan-2-yl]methyl]phenyl]tetrahydropyran-4-yl]-[(3S)-3-hydroxypyrrolidin-1-yl]methanone], the IC50 was determined as 98.5 nM. The molecule `C[C@H]1CC[C@H](c2ccccc2)S(=O)(=O)N1Cc1cc(F)c(C2(NC(=O)c3c[nH]cn3)COC2)cc1F` (stereo in doubt) [Example 134, N-[3-[2,5-difluoro-4-[[(3S,6R)-3-methyl-1,1-dioxo-6-phenyl-thiazinan-2-yl]methyl]phenyl]oxetan-3-yl]-1H-imidazole-4-carboxamide] came in with an IC50 of 50.7 nM. In the case of `C[C@H]1CC[C@H](c2ccccc2)S(=O)(=O)N1Cc1cc(F)c(C2(c3n[nH]c(=O)o3)CC2)cc1F` [Example 121, 5-[1-[2,5-difluoro-4-[[(3S,6R)-3-methyl-1,1-dioxo-6-phenyl-thiazinan-2-yl]methyl]phenyl]cyclopropyl]-3H-1,3,4-oxadiazol-2-one] it was 19.5 nM. With `C[C@H]1CC[C@H](c2ccccc2)S(=O)(=O)N1Cc1cc(F)c(C2(N3CCOC3=O)CCOCC2)cc1F` [Example 102, 3-[4-[2,5-difluoro-4-[[(3S,6R)-3-methyl-1,1-dioxo-6-phenyl-thiazinan-2-yl]methyl]phenyl]tetrahydropyran-4-yl]oxazolidin-2-one], the 50% inhibitory concentration (IC50) amounted to 55.3 nM. In the case of `C[C@H]1CC[C@H](c2ccccc2)S(=O)(=O)N1Cc1cc(F)c(C2(c3n[nH]c(=O)o3)CCOCC2)cc1F` [Example 58, 5-[4-[2,5-difluoro-4-[[(3S,6R)-3-methyl-1,1-dioxo-6-phenyl-thiazinan-2-yl]methyl]phenyl]tetrahydropyran-4-yl]-3H-1,3,4-oxadiazol-2-one] it was 6.6 nM. The figure for `C[C@H]1CC[C@H](c2ccccc2)S(=O)(=O)N1Cc1cc(F)c(C2(C(=O)NCc3ccnn3C)CCOCC2)cc1F` [Example 33, 4-[2,5-difluoro-4-[[(3S,6R)-3-methyl-1,1-dioxo-6-phenyl-thiazinan-2-yl]methyl]phenyl]-N-[(2-methylpyrazol-3-yl)methyl]tetrahydropyran-4-carboxamide] is 23.4 nM; for `C[C@H]1CC[C@H](c2ccccc2)S(=O)(=O)N1Cc1cc(F)c([C@]2(c3n[nH]c(=O)o3)C[C@@](O)(C(F)(F)F)C2)cc1F` [Example 149, trans 5-[1-[2,5-difluoro-4-[[(3S,6R)-3-methyl-1,1-dioxo-6-phenyl-thiazinan-2-yl]methyl]phenyl]-3-hydroxy-3-(trifluoromethyl)cyclobutyl]-3H-1,3,4-oxadiazol-2-one] it is 5.3 nM; for `C[C@H]1CC[C@H](c2ccccc2)S(=O)(=O)N1Cc1cc(F)c([C@]2([C@H]3CNC(=O)O3)C[C@](C)(O)C2)cc1F` (racemic) [Example 172, rac-(5S)-5-[1-[2,5-difluoro-4-[[rac-(3S,6R)-3-methyl-1,1-dioxo-6-phenyl-thiazinan-2-yl]methyl]phenyl]-3-hydroxy-3-methyl-cyclobutyl]oxazolidin-2-one] it is 51.9 nM. The figure for `C[C@H]1CC[C@H](c2ccccc2)S(=O)(=O)N1Cc1cc(F)c(C2(c3c[nH]c(=O)o3)CC(O)(CC3CC3)C2)cc1F` (mixture of isomers) [Example 184, 5-[3-(cyclopropylmethyl)-1-[2,5-difluoro-4-[[rac-(3S,6R)-3-methyl-1,1-dioxo-6-phenyl-thiazinan-2-yl]methyllphenyl]-3-hydroxy-cyclobutyl]-3H-oxazol-2-one] is 6.2 nM.

Molecule `C[C@H]1CC[C@H](c2ccccc2)S(=O)(=O)N1Cc1cc(F)c([C@]2(c3cc(=O)n(C)o3)C[C@](C)(O)C2)cc1F` [Example 161, 5-[1-[2,5-difluoro-4-[[(3S,6R)-3-methyl-1,1-dioxo-6-phenyl-thiazinan-2-yl]methyl]phenyl]-3-hydroxy-3-methyl-cyclobutyl]-2-methyl-isoxazol-3-one] returned an IC50 of 5.2 nM. The IC50 values of the last two molecules are within 1.5-fold of each other.

In the case of `C[C@H]1CC[C@H](c2ccccc2)S(=O)(=O)N1Cc1cc(F)c([C@]2(c3n[nH]c(=O)o3)C[C@](C)(N)C2)cc1F` (racemic) [Example 173, 5-[3-amino-1-[2,5-difluoro-4-[[rac-(3S,6R)-3-methyl-1,1-dioxo-6-phenyl-thiazinan-2-yl]methyl]phenyl]-3-methyl-cyclobutyl]-3H-1,3,4-oxadiazol-2-one; hydrochloride], the IC50 was 180 nM. On to `CCOC(=O)Cn1cnc(C2(c3cc(F)c(CN4[C@@H](C)CC[C@H](c5ccccc5)S4(=O)=O)cc3F)CCOCC2)n1` [Example 52, ethyl 2-[3-[4-[2,5-difluoro-4-[[(3S,6R)-3-methyl-1,1-dioxo-6-phenyl-thiazinan-2-yl]methyl]phenyl]tetrahydropyran-4-yl]-1,2,4-triazol-1-yl]acetate], for which the IC50 was 71 nM. The figure for `C[C@H]1CC[C@H](c2ccccc2)S(=O)(=O)N1Cc1cc(F)c(C2(C(=O)N3CC[C@@H](O)C3)CCOCC2)cc1F` [Example 32, [4-[2,5-difluoro-4-[[(3S,6R)-3-methyl-1,1-dioxo-6-phenyl-thiazinan-2-yl]methyl]phenyl]tetrahydropyran-4-yl]-[(3R)-3-hydroxypyrrolidin-1-yl]methanone] is 79 nM.
